{"source": "patent US10329243B2", "about": "“Biphenyl derivative and uses thereof” (XI'AN LIBANG PHARMACEUTICAL CO., LTD, priority 2015, dated 2019)", "type_in_all_cases": "in vivo, SD rats", "conditions_in_all_cases": "rat, in vivo", "key": {"SOD [1]": {"test_system": "SOD", "assay": "SOD determination, cerebral ischemic reperfusion MCAO model", "protocol": "(§1) Rats were intraperitoneally injected with 10% chloral hydrate 350 mg/kg after anesthesia and opened up at the center of the neck in accordance with the Zea Longa modified method. The right common carotid artery was separated, and the right external carotid artery branches was ligated. A small opening was made at the distal end of the external carotid artery, and a previously prepared thread was inserted through the common carotid artery and the external carotid artery bifurcation into the internal carotid artery, till the anterior end of the middle cerebral artery, with an immersed depth of 18 to 19 mm. The thread was then secured, and the wound was sutured layer by layer. After the operation, the rats were placed in a clean incubator to wake up. […] The sham operation group, the ischemic reperfusion group, and the Example groups were prepared strictly according to the requirements of the cerebral ischemic reperfusion model, while in the sham operation group the thread was put only into the external carotid artery. The animals were allowed to eat and drink freely after waking up. After 2 h, the thread was pulled out to achieve reperfusion. The sham operation group, the ischemic reperfusion group, and the Example groups were administered intravenously the aqueous solution of the biphenyl derivatives in PEG400 at 40 mg/kg (40 mg/kg means that 40 mg of the test compound per kg of the body weight of rats) 30 min before reperfusion and 12 h after reperfusion, respectively. The sham operation group and the ischemic reperfusion group were injected with the same amount of blank PEG400 aqueous solution at the same time point.\n(§2) 24 hours after reperfusion, 8 rats in each group were sacrificed by decapitation, the brain was removed, rinsed with PBS (pH 7.4) at −20° i for 20 min, evenly sliced (with a thickness of 2 mm), stained in a 2% TTC solution at 37°% in the dark for 30 min, fixed in 10% formalin for 24 h, and photographs were taken to analyze the infarct volume. A mixture of femoral arterial and venous blood was drawn from another 8 rats in each group under anesthesia, placed in a low temperature centrifuge at 4° C., centrifuged at 3500 r/min for 20 min, and the supernatant was stored in a refrigerator at −20° C. ready for SOD and MDA detection. After the blood was drawn, a perfusion needle was insert through the apex to the ascending aorta, and saline at 4° C. was rapid infused until the effluent became clear, followed by 4% paraformaldehyde phosphate buffer perfusion for fixation; the brain was removed by craniotomy, and brain tissues 2 mm in front of and behind the optic chiasma were taken and fixed, dehydrated, rendered transparent, impregnated in wax, and embedded. Brain continuous coronary tissue pathological sections were consecutively cut for later use. The remaining 8 rats in each group were sacrificed, brains were removed, the ischemic brain hemispheres were immediately taken on an ice tray, and 10% brain tissue homogenate was prepared for the detection of IL-1β and TNF-α.\n(§3) SOD and MDA were determined strictly in accordance with instructions of the kit."}, "MDA [2]": {"test_system": "MDA", "assay": "MDA determination, cerebral ischemic reperfusion MCAO model", "protocol": "as §1, §2, §3"}, "Fas [3]": {"test_system": "Fas", "assay": "Fas determination (immunohistochemical method), cerebral ischemic reperfusion MCAO model", "protocol": "as §1, §2\n(§4) The immunohistochemical method was used for determination. Brain tissue paraffin sections were dewaxed into water, washed with 3% H2O2 to eliminate endogenous peroxidase activity, and rinsed with distilled water for 3 times. Sodium citrate buffer was used for antigen heat repairing, and blocking with calf serum was carried out at room temperature for 15 min; a rabbit anti-mouse Fas antibody was added dropwise, allowed to stand at 4°t overnight, biotinylated goat anti-rabbit IgG was added dropwise, and heated in a water bath at 37°a for 20 min. Washing with PBS for 5 min was continuously repeated 4 times, followed by staining with DAB and sufficient washing without counterstaining. The sections were then gradient dehydrated with alcohol, made transparent with toluene, sealed and fixed. Images were captured by a video camera under high-power optical microscope and inputted into the image analysis system for image analysis. […]"}, "SOD [4]": {"test_system": "SOD", "assay": "SOD determination, permanent cerebral ischemia model", "protocol": "as §1, with “the permanent cerebral ischemia model” for “the ischemic reperfusion”, “up.” for “up. After 2 h, the thread was pulled out to achieve reperfusion.”, “before insertion of thread” for “before reperfusion”, “after embolism,” for “after reperfusion,”\nas §2, with “the embolism,” for “reperfusion,”, “−20°i” for “−20° i”\nas §3"}, "MDA [5]": {"test_system": "MDA", "assay": "MDA determination, permanent cerebral ischemia model", "protocol": "as §1, with “the permanent cerebral ischemia model” for “the ischemic reperfusion”, “up.” for “up. After 2 h, the thread was pulled out to achieve reperfusion.”, “before insertion of thread” for “before reperfusion”, “after embolism,” for “after reperfusion,”\nas §2, with “the embolism,” for “reperfusion,”, “−20°i” for “−20° i”\nas §3"}, "Fas [6]": {"test_system": "Fas", "assay": "Fas determination (immunohistochemical method), permanent cerebral ischemia model", "protocol": "as §1, with “the permanent cerebral ischemia model” for “the ischemic reperfusion”, “up.” for “up. After 2 h, the thread was pulled out to achieve reperfusion.”, “before insertion of thread” for “before reperfusion”, “after embolism,” for “after reperfusion,”\nas §2, with “the embolism,” for “reperfusion,”, “−20°i” for “−20° i”\nas §4"}}, "data": [{"smiles": "CC(C)c1cccc(C(C)C)c1O", "note": "[Propofol injection, propofol, reference compound]", "values": [{"measurement": "SOD ACTIVITY (U/mL)", "setting": "SOD [1]", "value": "88.25 ± 2.19", "unit": "U/mL"}, {"measurement": "MDA CONTENT", "setting": "MDA [2]", "value": "5.58 ± 0.48", "unit": "mmol/mL"}, {"measurement": "Fas average gray scale", "setting": "Fas [3]", "value": "142.15 ± 5.71"}, {"measurement": "SOD ACTIVITY (U/mL)", "setting": "SOD [4]", "value": "89.13 ± 3.82", "unit": "U/mL"}, {"measurement": "MDA CONTENT", "setting": "MDA [5]", "value": "6.10 ± 0.29", "unit": "mmol/mL"}, {"measurement": "Fas average gray value", "setting": "Fas [6]", "value": "140.51 ± 4.84"}]}]}
